Results published in patent US20260262643A1, “HERBICIDAL BENZOXAZINES” (FMC CORPORATION, priority 2022, published 2026).

What was measured:
blackgrass [1] = test: Test A preemergence; type: in vivo, Alopecurus myosuroides
In short: (§1)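 Visual injury ratings on a 0–100 scale (100 = complete control) versus untreated controls, taken 10 days after treatment in greenhouse. Preemergence: directed soil spray onto seeded loam/sand. Postemergence: foliar application at one- to two-leaf stage, plants 2–10 cm. Formulation: non-phytotoxic solvent plus surfactant.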

corn [2] = test: Test A preemergence; type: in vivo, Zea mays
In short: as §1

foxtail, giant [3] = test: Test A preemergence; type: in vivo, Setaria faberi
In short: as §1

goosegrass [4] = test: Test A preemergence; type: in vivo, Eleusine indica
In short: as §1

kochia [5] = test: Test A preemergence; type: in vivo, Bassia scoparia
In short: as §1

oat, wild [6] = test: Test A preemergence; type: in vivo, Avena fatua
In short: as §1

pigweed, palmer [7] = test: Test A preemergence; type: in vivo, Amaranthus palmeri
In short: as §1

ragweed [8] = test: Test A preemergence; type: in vivo, Ambrosia artemisiifolia
In short: as §1

ryegrass, Italian [9] = test: Test A preemergence; type: in vivo, Lolium multiflorum
In short: as §1

soybean [10] = test: Test A preemergence; type: in vivo, Glycine max
In short: as §1

wheat [11] = test: Test A preemergence; type: in vivo, Triticum aestivum
In short: as §1

blackgrass [12] = test: Test A postemergence; type: in vivo, Alopecurus myosuroides; details: postemergence, 10 days; for Blackgrass plant response rating: 125 g ai/ha, 0 to 100 scale, 0 no effect, 100 complete control; for Plant response rating, Blackgrass: 500 g ai/ha, visual injury, 0 to 100 scale (0 no effect, 100 complete control)
In short: as §1

corn [13] = test: Test A postemergence; type: in vivo, Zea mays; details: postemergence, 10 days; for Corn plant response rating: 125 g ai/ha, 0 to 100 scale, 0 no effect, 100 complete control; for Plant response rating, Corn: 500 g ai/ha, visual injury, 0 to 100 scale (0 no effect, 100 complete control)
In short: as §1

foxtail, giant [14] = test: Test A postemergence; type: in vivo, Setaria faberi; details: postemergence, 10 days; for Foxtail, Giant plant response rating: 125 g ai/ha, 0 to 100 scale, 0 no effect, 100 complete control; for Plant response rating, Foxtail, Giant: 500 g ai/ha, visual injury, 0 to 100 scale (0 no effect, 100 complete control)
In short: as §1

goosegrass [15] = test: Test A postemergence; type: in vivo, Eleusine indica; details: postemergence, 10 days; for Goosegrass plant response rating: 125 g ai/ha, 0 to 100 scale, 0 no effect, 100 complete control; for Plant response rating, Goosegrass: 500 g ai/ha, visual injury, 0 to 100 scale (0 no effect, 100 complete control)
In short: as §1

kochia [16] = test: Test A postemergence; type: in vivo, Bassia scoparia; details: postemergence, 10 days; for Kochia plant response rating: 125 g ai/ha, 0 to 100 scale, 0 no effect, 100 complete control; for Plant response rating, Kochia: 500 g ai/ha, visual injury, 0 to 100 scale (0 no effect, 100 complete control)
In short: as §1

oat, wild [17] = test: Test A postemergence; type: in vivo, Avena fatua; details: postemergence, 10 days; for Oat, Wild plant response rating: 125 g ai/ha, 0 to 100 scale, 0 no effect, 100 complete control; for Plant response rating, Oat, Wild: 500 g ai/ha, visual injury, 0 to 100 scale (0 no effect, 100 complete control)
In short: as §1

pigweed, palmer [18] = test: Test A postemergence; type: in vivo, Amaranthus palmeri; details: postemergence, 10 days; for Pigweed, Palmer plant response rating: 125 g ai/ha, 0 to 100 scale, 0 no effect, 100 complete control; for Plant response rating, Pigweed, Palmer: 500 g ai/ha, visual injury, 0 to 100 scale (0 no effect, 100 complete control)
In short: as §1

ragweed [19] = test: Test A postemergence; type: in vivo, Ambrosia artemisiifolia; details: postemergence, 10 days; for Ragweed plant response rating: 125 g ai/ha, 0 to 100 scale, 0 no effect, 100 complete control; for Plant response rating, Ragweed: 500 g ai/ha, visual injury, 0 to 100 scale (0 no effect, 100 complete control)
In short: as §1

ryegrass, Italian [20] = test: Test A postemergence; type: in vivo, Lolium multiflorum; details: postemergence, 10 days; for Ryegrass, Italian plant response rating: 125 g ai/ha, 0 to 100 scale, 0 no effect, 100 complete control; for Plant response rating, Ryegrass, Italian: 500 g ai/ha, visual injury, 0 to 100 scale (0 no effect, 100 complete control)
In short: as §1

soybean [21] = test: Test A postemergence; type: in vivo, Glycine max; details: postemergence, 10 days; for Soybean plant response rating: 125 g ai/ha, 0 to 100 scale, 0 no effect, 100 complete control; for Plant response rating, Soybean: 500 g ai/ha, visual injury, 0 to 100 scale (0 no effect, 100 complete control)
In short: as §1

wheat [22] = test: Test A postemergence; type: in vivo, Triticum aestivum; details: postemergence, 10 days; for Wheat plant response rating: 125 g ai/ha, 0 to 100 scale, 0 no effect, 100 complete control; for Plant response rating, Wheat: 500 g ai/ha, visual injury, 0 to 100 scale (0 no effect, 100 complete control)
In short: as §1

galium = test: Test A postemergence; type: in vivo, Galium aparine; details: postemergence, 10 days; for Galium plant response rating: 125 g ai/ha, 0 to 100 scale, 0 no effect, 100 complete control; for Plant response rating, Galium: 500 g ai/ha, visual injury, 0 to 100 scale (0 no effect, 100 complete control)
In short: as §1

horseweed = test: Test A postemergence; type: in vivo, Erigeron canadensis; details: postemergence, 10 days; for Horseweed plant response rating: 125 g ai/ha, 0 to 100 scale, 0 no effect, 100 complete control; for Plant response rating, Horseweed: 500 g ai/ha, visual injury, 0 to 100 scale (0 no effect, 100 complete control)
In short: as §1

barnyardgrass = test: Test B flooded paddy test; type: in vivo, Echinochloa crus-galli; details: 250 g ai/ha, Flood, 13 days, 0 to 100 scale (0 no effect, 100 complete control)
In short: (§2)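 Each species was raised to the 2-leaf stage. At treatment, each pot received floodwater 3 cm deep, with the chemical delivered into the water. Greenhouse holding followed for 13 days, then percent control was estimated visually versus untreated pots.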

ducksalad = test: Test B flooded paddy test; type: in vivo, Heteranthera limosa; details: 250 g ai/ha, Flood, 13 days, 0 to 100 scale (0 no effect, 100 complete control)
In short: as §2

rice = test: Test B flooded paddy test; type: in vivo, Oryza sativa; details: 250 g ai/ha, Flood, 13 days, 0 to 100 scale (0 no effect, 100 complete control)
In short: as §2

sedge, umbrella = test: Test B flooded paddy test; type: in vivo, Cyperus difformis; details: 250 g ai/ha, Flood, 13 days, 0 to 100 scale (0 no effect, 100 complete control)
In short: as §2

[23] = 125 g ai/ha, visual injury after 10 days, 0 to 100 scale, 0 is no effect, 100 is complete control
[24] = 500 g ai/ha, visual injury after 10 days, 0 to 100 scale, 0 is no effect, 100 is complete control
[25] = 500 g ai/ha, 0 to 100 scale (0 no effect, 100 complete control), 10 days

Cc1cccc2c1O[C@@H](C)CN2C(=O)c1cccc(-n2cnn(C(C)C)c2=O)c1 [Compound 118]
Plant response rating, Blackgrass (blackgrass [1]; [23]): 20
Plant response rating, Blackgrass (blackgrass [1]; [24]): 70
Plant response rating, Corn (corn [2]; [23]): 0
Plant response rating, Corn (corn [2]; [24]): 30
Plant response rating, Foxtail, Giant (foxtail, giant [3]; [23]): 20
Plant response rating, Foxtail, Giant (foxtail, giant [3]; [24]): 100
Plant response rating, Goosegrass (goosegrass [4]; [23]): 90
Plant response rating, Goosegrass (goosegrass [4]; [24]): 100
Plant response rating, Kochia (kochia [5]; [23]): 0
Plant response rating, Kochia (kochia [5]; [24]): 70
Plant response rating, Oat, Wild (oat, wild [6]; [23]): 30
Plant response rating, Oat, Wild (oat, wild [6]; [24]): 90
Plant response rating, Pigweed, Palmer (pigweed, palmer [7]; [23]): 40
Plant response rating, Pigweed, Palmer (pigweed, palmer [7]; [24]): 100
Plant response rating, Ragweed (ragweed [8]; [23]): 0
Plant response rating, Ragweed (ragweed [8]; [24]): 30
Plant response rating, Ryegrass, Italian (ryegrass, Italian [9]; [23]): 70
Plant response rating, Ryegrass, Italian (ryegrass, Italian [9]; [24]): 100
Plant response rating, Soybean (soybean [10]; [23]): 40
Plant response rating, Soybean (soybean [10]; [24]): 60
Plant response rating, Wheat (wheat [11]; [23]): 0
Plant response rating, Wheat (wheat [11]; [24]): 30
Blackgrass plant response rating (blackgrass [12]): 0
Plant response rating, Blackgrass (blackgrass [12]): 70
Corn plant response rating (corn [13]): 0
Plant response rating, Corn (corn [13]): 70
Foxtail, Giant plant response rating (foxtail, giant [14]): 10
Plant response rating, Foxtail, Giant (foxtail, giant [14]): 50
Goosegrass plant response rating (goosegrass [15]): 20
Plant response rating, Goosegrass (goosegrass [15]): 40
Kochia plant response rating (kochia [16]): 30
Plant response rating, Kochia (kochia [16]): 80
Oat, Wild plant response rating (oat, wild [17]): 10
Plant response rating, Oat, Wild (oat, wild [17]): 90
Pigweed, Palmer plant response rating (pigweed, palmer [18]): 0
Plant response rating, Pigweed, Palmer (pigweed, palmer [18]): 20
Ragweed plant response rating (ragweed [19]): 0
Plant response rating, Ragweed (ragweed [19]): 30
Ryegrass, Italian plant response rating (ryegrass, Italian [20]): 10
Plant response rating, Ryegrass, Italian (ryegrass, Italian [20]): 60
Soybean plant response rating (soybean [21]): 40
Plant response rating, Soybean (soybean [21]): 80
Wheat plant response rating (wheat [22]): 10
Plant response rating, Wheat (wheat [22]): 30
Galium plant response rating (galium): 10
Plant response rating, Galium (galium): 30
Horseweed plant response rating (horseweed): 0
Plant response rating, Horseweed (horseweed): 0
Plant response rating, Barnyardgrass (barnyardgrass): 0
Plant response rating, Ducksalad (ducksalad): 0
Plant response rating, Rice (rice): 0
Plant response rating, Sedge, Umbrella (sedge, umbrella): 0

CCc1ccc(-n2cnc(C(C)(C)C)n2)cc1C(=O)N1C[C@H](C)Oc2c(Cl)cccc21 [Compound 102]
Plant response rating, Blackgrass (blackgrass [1]; [23]): 30
Plant response rating, Blackgrass (blackgrass [1]; [25]): 50
Plant response rating, Corn (corn [2]; [23]): 10
Plant response rating, Corn (corn [2]; [25]): 20
Plant response rating, Foxtail, Giant (foxtail, giant [3]; [23]): 90
Plant response rating, Foxtail, Giant (foxtail, giant [3]; [25]): 100
Plant response rating, Goosegrass (goosegrass [4]; [23]): 100
Plant response rating, Goosegrass (goosegrass [4]; [25]): 100
Plant response rating, Kochia (kochia [5]; [23]): 80
Plant response rating, Kochia (kochia [5]; [25]): 100
Plant response rating, Oat, Wild (oat, wild [6]; [23]): 40
Plant response rating, Oat, Wild (oat, wild [6]; [25]): 80
Plant response rating, Pigweed, Palmer (pigweed, palmer [7]; [23]): 100
Plant response rating, Pigweed, Palmer (pigweed, palmer [7]; [25]): 100
Plant response rating, Ragweed (ragweed [8]; [23]): 0
Plant response rating, Ragweed (ragweed [8]; [25]): 0
Plant response rating, Ryegrass, Italian (ryegrass, Italian [9]; [23]): 80
Plant response rating, Ryegrass, Italian (ryegrass, Italian [9]; [25]): 100
Plant response rating, Soybean (soybean [10]; [23]): 50
Plant response rating, Soybean (soybean [10]; [25]): 100
Plant response rating, Wheat (wheat [11]; [23]): 0
Plant response rating, Wheat (wheat [11]; [25]): 0
Blackgrass plant response rating (blackgrass [12]): 0
Plant response rating, Blackgrass (blackgrass [12]): 60
Corn plant response rating (corn [13]): 20
Plant response rating, Corn (corn [13]): 80
Foxtail, Giant plant response rating (foxtail, giant [14]): 80
Plant response rating, Foxtail, Giant (foxtail, giant [14]): 90
Goosegrass plant response rating (goosegrass [15]): 80
Plant response rating, Goosegrass (goosegrass [15]): 80
Kochia plant response rating (kochia [16]): 90
Plant response rating, Kochia (kochia [16]): 90
Oat, Wild plant response rating (oat, wild [17]): 10
Plant response rating, Oat, Wild (oat, wild [17]): 60
Pigweed, Palmer plant response rating (pigweed, palmer [18]): 90
Plant response rating, Pigweed, Palmer (pigweed, palmer [18]): 100
Ragweed plant response rating (ragweed [19]): 20
Plant response rating, Ragweed (ragweed [19]): 40
Ryegrass, Italian plant response rating (ryegrass, Italian [20]): 50
Plant response rating, Ryegrass, Italian (ryegrass, Italian [20]): 50
Soybean plant response rating (soybean [21]): 100
Plant response rating, Soybean (soybean [21]): 100
Wheat plant response rating (wheat [22]): 10
Plant response rating, Wheat (wheat [22]): 30
Galium plant response rating (galium): 50
Plant response rating, Galium (galium): 100
Horseweed plant response rating (horseweed): 0
Plant response rating, Horseweed (horseweed): 0
Plant response rating, Barnyardgrass (barnyardgrass): 10
Plant response rating, Ducksalad (ducksalad): 65
Plant response rating, Rice (rice): 10
Plant response rating, Sedge, Umbrella (sedge, umbrella): 95
